Assay [1] has as its system ENR+CD organoids (ISC to Paneth cell differentiation). Description: Primary screen: basal (non-stimulated) lysozyme secretion LYZ.NS, 2.5-D 384-well ENR+CD organoid differentiation. Format: cell-based, mouse. The following applies: primary screen; for Dose.FC.LYZ.NS: FC relative to plate median; for Z.LYZ.NS: standard z score. An excerpt:
(§1) High-throughput screening.

Assay [2] has the same test system. Description: Primary screen: CCh-stimulated lysozyme secretion LYZ.S, 2.5-D 384-well ENR+CD organoid differentiation. Format: cell-based, mouse. The following applies: primary screen, FC relative to plate median.
Source text: as §1

The subject of another assay is ENR+CD organoids. Description: Primary screen: ATP (CellTiter-Glo 3D, CTG) cell number/viability, 2.5-D 384-well ENR+CD organoids.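 As to all read-outs here: compounds given at plating and again on day 3 over a 6-day differentiation from ENR+CV stem-cell-enriched precursors, ATP measured on day 6, plate median as control.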 The note with it: primary screen; for Dose.FC.CTG: FC relative to plate median; for Z.CTG: standard z score.

Turning to `O=C(Nc1ccccc1Br)N[C@@H]1CCN(c2ccc(C(F)(F)F)cn2)C1` [SB705498], the Dose.FC.LYZ.NS in assay [1] (dose 0.08 uM) is on record as 0.074 log2 fold change; in assay [1] (dose 0.40 uM), −0.050 log2 fold change; in assay [1] (dose 2.00 uM), −0.001 log2 fold change; in assay [1] (dose 10.00 uM), −0.018 log2 fold change. Besides, the Z.LYZ.NS was 0.642 in assay [1] (dose 0.08 uM), −0.433 in assay [1] (dose 0.40 uM), −0.008 in assay [1] (dose 2.00 uM) and −0.154 in assay [1] (dose 10.00 uM). For the same molecule, the Dose.FC.LYZ.S in assay [2] (dose 0.08 uM) was 0.094 log2 fold change; in assay [2] (dose 0.40 uM) it was 0.023 log2 fold change; in assay [2] (dose 2.00 uM), −0.030 log2 fold change; in assay [2] (dose 10.00 uM), −0.023 log2 fold change. Moreover, the Dose.FC.CTG with ENR+CD organoids (dose 0.08 uM) is listed as 0.133 log2 fold change; in the assay with ENR+CD organoids (dose 0.40 uM), −0.043 log2 fold change; with ENR+CD organoids (dose 2.00 uM), −0.004 log2 fold change; in the assay on ENR+CD organoids (dose 10.00 uM), −0.037 log2 fold change. For the same molecule, the Z.CTG with ENR+CD organoids (dose 0.08 uM) is recorded as 0.318; in the assay with ENR+CD organoids (dose 0.40 uM), −0.102; with ENR+CD organoids (dose 2.00 uM), −0.009; in the assay with ENR+CD organoids (dose 10.00 uM), −0.089.
As to `O=S(=O)(c1ccccc1)c1cnc2c(N3CCNCC3)cccc2c1` [SB742457], the Dose.FC.LYZ.NS in assay [1] (dose 0.08 uM) is 0.012 log2 fold change; in assay [1] (dose 0.40 uM), −0.062 log2 fold change; in assay [1] (dose 2.00 uM) it was 0.069 log2 fold change; in assay [1] (dose 10.00 uM), 0.013 log2 fold change. For the same molecule, the Z.LYZ.NS in assay [1] (dose 0.08 uM) was 0.108; in assay [1] (dose 0.40 uM) it was −0.537; in assay [1] (dose 2.00 uM), 0.598; in assay [1] (dose 10.00 uM), 0.115. Besides, the Dose.FC.LYZ.S in assay [2] (dose 0.08 uM) is −0.055 log2 fold change; in assay [2] (dose 0.40 uM), −0.029 log2 fold change; in assay [2] (dose 2.00 uM), −0.003 log2 fold change; in assay [2] (dose 10.00 uM), −0.006 log2 fold change. The Dose.FC.CTG with ENR+CD organoids (dose 0.08 uM) was −0.290 log2 fold change; with ENR+CD organoids (dose 0.40 uM) it was −0.126 log2 fold change; in the assay with ENR+CD organoids (dose 2.00 uM) it was −0.177 log2 fold change; in the assay with ENR+CD organoids (dose 10.00 uM) it was −0.294 log2 fold change. Also, the Z.CTG in the assay with ENR+CD organoids (dose 0.08 uM) was −0.693; in the assay with ENR+CD organoids (dose 0.40 uM), −0.300; in the assay on ENR+CD organoids (dose 2.00 uM), −0.423; with ENR+CD organoids (dose 10.00 uM) it was −0.702.
As for `Cc1ccc(C(=O)N(CCCN)[C@@H](c2oc3cc(Cl)ccc3c(=O)c2Cc2ccccc2)C(C)C)cc1` [SB743921], the Dose.FC.LYZ.NS in assay [1] (dose 0.08 uM) was −0.232 log2 fold change; in assay [1] (dose 0.40 uM), −0.247 log2 fold change; in assay [1] (dose 2.00 uM), −0.264 log2 fold change; in assay [1] (dose 10.00 uM) it was −0.238 log2 fold change. For the same molecule, the Z.LYZ.NS is −2.017 in assay [1] (dose 0.08 uM), −2.148 in assay [1] (dose 0.40 uM), −2.297 in assay [1] (dose 2.00 uM) and −2.068 in assay [1] (dose 10.00 uM). Also, the Dose.FC.LYZ.S is on record as −0.321 log2 fold change in assay [2] (dose 0.08 uM), −0.329 log2 fold change in assay [2] (dose 0.40 uM), −0.340 log2 fold change in assay [2] (dose 2.00 uM) and −0.350 log2 fold change in assay [2] (dose 10.00 uM). The Dose.FC.CTG is listed as −0.485 log2 fold change in the assay with ENR+CD organoids (dose 0.08 uM), −0.777 log2 fold change in the assay with ENR+CD organoids (dose 0.40 uM), −0.485 log2 fold change in the assay on ENR+CD organoids (dose 2.00 uM) and −0.542 log2 fold change with ENR+CD organoids (dose 10.00 uM). Besides, the Z.CTG in the assay with ENR+CD organoids (dose 0.08 uM) was −1.159; with ENR+CD organoids (dose 0.40 uM) it was −1.855; in the assay on ENR+CD organoids (dose 2.00 uM) it was −1.158; in the assay on ENR+CD organoids (dose 10.00 uM) it was −1.294.
On to `O=C(NNc1nc2cc(F)ccc2n2cccc12)c1cnccn1` [SC144], for which the Dose.FC.LYZ.NS in assay [1] (dose 0.08 uM) is reported as 0.067 log2 fold change; in assay [1] (dose 0.40 uM) it was −0.013 log2 fold change; in assay [1] (dose 2.00 uM) it was −0.025 log2 fold change; in assay [1] (dose 10.00 uM) it was −0.156 log2 fold change. The Z.LYZ.NS is reported as 0.582 in assay [1] (dose 0.08 uM), −0.112 in assay [1] (dose 0.40 uM), −0.220 in assay [1] (dose 2.00 uM) and −1.355 in assay [1] (dose 10.00 uM). Moreover, the Dose.FC.LYZ.S is reported as 0.098 log2 fold change in assay [2] (dose 0.08 uM), 0.014 log2 fold change in assay [2] (dose 0.40 uM), −0.131 log2 fold change in assay [2] (dose 2.00 uM) and −0.211 log2 fold change in assay [2] (dose 10.00 uM). For the same molecule, the Dose.FC.CTG in the assay with ENR+CD organoids (dose 0.08 uM) is reported as 0.160 log2 fold change; with ENR+CD organoids (dose 0.40 uM) it was 0.129 log2 fold change; in the assay on ENR+CD organoids (dose 2.00 uM), −0.257 log2 fold change; in the assay on ENR+CD organoids (dose 10.00 uM) it was −0.885 log2 fold change. The Z.CTG is 0.381 in the assay with ENR+CD organoids (dose 0.08 uM), 0.309 in the assay with ENR+CD organoids (dose 0.40 uM), −0.613 in the assay on ENR+CD organoids (dose 2.00 uM) and −2.113 in the assay with ENR+CD organoids (dose 10.00 uM).
